Results as given in patent publication US9550000B2, “Compositions, methods, and systems for the synthesis and use of imaging agents” (Lantheus Medical Imaging, Inc., priority 2011, dated 2017).
Where a name gives a salt, the structure may show the parent alone.

Experiments:
[1] = Tissue distribution in rabbits; type: in vivo; details: bolus iv injection
Experimental: (§1) Male Sprague Dawley rats (300-500 g, Taconic), and male New Zealand rabbits (3-4 kg, Covance) were used in accordance with our Institutional Animal Care and Use Committee. Rats were anesthetized with sodium pentobarbital (50 mg/kg, i.p.) and the left femoral vein cannulated with PESO tubing for drug injection. Rabbits were pre-sedated with acepromazine (0.75 mg/kg i.m.) then anesthetized with ketamine (40 mg/kg, i.m.) and xylazine (8 mg/kg, i.m); the marginal ear vein was cannulated for drug injection. Additional doses of anesthetics were given as needed.
(§2) After preparation, each animal received a bolus injection of the test agent via the venous catheter. Rats and rabbits were euthanized after the injection and samples of the blood, heart, lung, liver, spleen, kidney, femur and muscle were collected. All samples were weighed and counted for radioactivity (Wallac Wizard 1480, PerkinElmer Life and Analytical Sciences, Shelton, Conn.); net radioactivity administered in each animal was determined by subtracting the residual activity in both the syringe and venous catheter. Tissue uptake of each agent was determined as a percentage of the injected dose per gram tissue (% ID/g).

[2] = target: T1, human norepinephrine transporter (Homo sapiens, UniProt P23975); test: Norepinephrine transporter binding assay ([3H]desipramine competition, MDCK cell membranes); details: competition with [3H]desipramine 2 nM, 2 h on ice; read-out: NET Affinity
T1 construct: expressed in transfected cells; host or cells: MDCK cells (membrane preparation)
T1 sequence (P23975 whole entry): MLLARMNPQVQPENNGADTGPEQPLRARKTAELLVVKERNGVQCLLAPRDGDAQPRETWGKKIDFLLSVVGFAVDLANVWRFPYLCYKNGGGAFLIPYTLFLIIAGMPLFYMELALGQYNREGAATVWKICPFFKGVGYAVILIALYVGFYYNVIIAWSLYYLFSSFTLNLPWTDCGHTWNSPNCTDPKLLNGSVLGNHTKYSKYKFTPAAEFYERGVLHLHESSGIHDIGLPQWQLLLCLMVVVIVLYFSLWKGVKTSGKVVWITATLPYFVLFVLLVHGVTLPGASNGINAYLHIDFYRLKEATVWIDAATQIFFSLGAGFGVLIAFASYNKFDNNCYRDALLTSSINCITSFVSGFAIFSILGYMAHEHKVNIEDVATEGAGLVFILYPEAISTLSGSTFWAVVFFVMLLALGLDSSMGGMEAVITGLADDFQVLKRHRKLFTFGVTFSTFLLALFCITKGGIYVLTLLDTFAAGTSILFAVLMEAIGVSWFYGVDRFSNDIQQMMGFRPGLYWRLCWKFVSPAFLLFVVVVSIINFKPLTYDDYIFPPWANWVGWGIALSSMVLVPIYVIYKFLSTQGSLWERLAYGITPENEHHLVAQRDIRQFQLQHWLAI
Experimental: Individual inhibitors were dissolved in incubation buffer (50 mM Tris-HCl, 10% sucrose, pH 7.4) at appropriate dilutions. The inhibitor solutions were added to the wells of a microtiter plate (40 μL/well) in triplicate. Each well of test agent (and appropriate control wells) was treated with a mixture of MDCK cell membrane preparation (22.4 μg of membrane) expressing human norepinephrine transporter (Bmax=3.7 pmol norepinephrine transporter/mg protein), and [^3H]desipramine (2 nM, 64.8 Ci/mmol) in a total volume of 0.2 mL. The resulting mixtures were incubated for 2 h on ice.
A 96 well GF/C filter plate was presoaked with coating buffer (0.5% polyvinylpyrrolidine and 0.1% Tween 20) for 2 h at room temperature, then washed with incubation buffer (6×0.2 mL). The competition reactions were transferred to the coated plate and filtered. The filter plate was washed (6×0.2 mL) with ice cold wash buffer (50 mM Tris-HCl, 0.9% NaCl, pH 7.4) then dried overnight and treated with 25 μL scintillation fluid for analysis on a plate reader (Microbeta TriLux 1450 LSC and Luminescence counter, Perkin Elmer, Shelton Conn.).

PC-12 cells = test: PC-12 binding assay (cell uptake with or without desipramine); type: cell-based, rat; details: 0.1 μCi test agent, 60 min at 37° C.; for PC-12 (% bound) Block: with 1 μM desipramine (nonspecific uptake); for PC-12 (% bound) Control: without desipramine (total uptake)
Experimental: Rat pheochromocytoma cell line (PC-12) were purchased from the American Type Culture Collection (ATCC) then cultured in collagen-coated flasks (BD Bio Coat Collagen Type 1, BD Biosciences) using a growth media composed of F-12 K media, 2 mM L-glutamine, 15% horse serum, 2.5% fetal bovine serum (FBS) and 1% penicillin-streptomycin.
Prepared PC-12 cells were seeded into 6-well plates at a density of 1×10^6 cells/well with 2 mL of growth media and maintained 24 h at 37° C. under a 5% CO2 atmosphere. The media was exchanged and each well treated with 0.1 μCi test agent, with or without 1 μM desipramine. The resulting mixture was incubated for 60 min at 37° C. and 5% CO2 then centrifuged at 500×g for 3 min and washed with PBS buffer. Radioactivity associated with the cells was then measured, and total uptake determined in the wells without desipramine; nonspecific uptake was measured in the associated wells containing desipramine. The specific NET mediated cell uptake is calculated as percent total uptake minus percent nonspecific uptake.

[3] = Tissue distribution in rats; type: in vivo; details: bolus iv injection
Experimental: as §1, §2

[4] = tested on: noradrenaline transporter (NAT) in SK-N-SH cells; test: Competitive inhibition of Imaging Agent-1 uptake in SK-N-SH cells; type: cell-based, human; details: non-radioactive competitor 0.1-100 μM, 37° C., 60 minutes, read-out: IC50 for inhibition of Imaging Agent-1 cell uptake
Experimental: For the competitive inhibition assay, Imaging Agent-1 at 3.7 kBq was incubated in SK-N-SH cells with various concentrations (0.1, 1, 10, or 100 μM) of non-radioactive NA, MIBG or ^19F-Imaging Agent-1 (self) at 37° C. for 60 minutes. Similarly, following the incubation, Imaging Agent-1 cell uptake was determined. The IC50 value of each agent was determined using GraphPad software (v5).

[5] = tested on: SK-N-SH cells with expression of NAT; test: Cell uptake comparison in SK-N-SH cells with or without desipramine; type: cell-based, human; details: for inhibition of cell uptake by blockade of NAT with desipramine: SK-N-SH cells, desipramine 1 μM
Experimental: Imaging Agent-1 cell uptake in comparison with ^3H-NA and ^123I-MIBG was assayed in human neuroblastoma cells (SK-N-SH, ATCC) with expression of NAT (Buck et al., Cancer Res. 1985; 45(12 Pt 1):6366-70). Cells were prepared in 6-well plates at a density of 1×10^6 cells/well in 2 mL media. Imaging Agent-1, ^3H-NA or ^123I-MIBG at 3.7 kBq was added to each well with or without desipramine (1 μM), a selective NAT inhibitor. In assay with NA, pargyline (10 μM) was included to inhibit monoamine oxidase activity. Following incubation for 60 minutes at 37° C., cells were washed twice with ice-cold phosphate-buffered saline, trypsinized and centrifuged at 1000 g for 3 minutes to collect cell pellet. Radioactivity associated with the cells was measured with a γ-(Wallac Wizard 1480, PerkinElmer) or β-counter (Microbeta TriLux 1450 LSC, PerkinElmer). Each assay was performed in triplicate and the uptake was expressed as a percent of total radioactivity added to the well.

Compound	Rabbit Blood [1] [% ID/g]	Rabbit Heart [1] [% ID/g]	Rabbit Liver [1] [% ID/g]	Rabbit Lung [1] [% ID/g]	Ki [2] [µM]	PC-12 (% bound) Block (PC-12 cells) [% bound]	PC-12 (% bound) Control (PC-12 cells) [% bound]	Rat Blood [3] [% ID/g]	Rat Heart [3] [% ID/g]	Rat Liver [3] [% ID/g]	Rat Lung [3] [% ID/g]	IC50 [4] [µM]	uptake in SK-N-SH cells (percent of total radioactivity added) ([5]; 3.7 kBq, 60 minutes at 37° C., without desipramine) [%]	inhibition of cell uptake by blockade of NAT with desipramine [5] [%]
N=C(N)NCc1ccc2cc(OCCF)ccc2c1 [Example 11, 1-((6-(2-fluoroethoxy)naphthalen-2-yl)methyl)guanidine]	0.04 ± 0.01	0.39 ± 0.02	0.02 ± 0.00	0.39 ± 0.11	0.12	2.70	23.90	0.51 ± 0.11	1.74 ± 0.27	0.61 ± 0.40	2.71 ± 0.51	–	–	–
N=C1NCC(c2ccc(OCCF)c(Br)c2)N1 (stereo not shown) [Example 2, 4-(3-bromo-4-(2-fluoroethoxy)phenyl)imidazolidin-2-imine, hydrochloric acid salt]	–	–	–	–	11.2	0.60	3.20	0.19	1.33	0.25	0.94	–	–	–
N=C(N)NCc1cccc(I)c1 [MIBG, meta-iodobenzylguanidine]	–	–	–	–	–	–	–	–	–	–	–	0.21	–	–
N=C1NCC(c2ccc(OCCF)cc2)N1 (stereo not shown) [Example 1, 4-(4-(2-fluoroethoxy)phenyl)imidazolidin-2-imine]	–	–	–	–	7.27	0.30	3.1	0.18	1.03	0.15	0.24	–	–	–
N=C(N)NCc1ccc(CCF)cc1 [Example 5, 1-[4-(2-fluoroethyl)benzyl]guanidine]	–	–	–	–	18.7	0.90	1.00	0.69	1.23	0.26	0.59	–	–	–
N=C(N)NCc1ccc(OCCC[18F])c(Br)c1 [Imaging Agent-1]	–	–	–	–	–	–	–	–	–	–	–	–	24.6±9	90±3
N=C(N)NCCc1c[nH]c2ccc(OCCF)cc12 [Example 21, 1-(2-(5-(2-fluoroethoxy)-1H-indol-3-yl)ethyl)guanidine]	–	–	–	–	1.19	0.10	0.10	0.41	0.35	1.01	0.38	–	–	–
N=C(N)NCc1ccc(CCF)c(Br)c1 [Example 8, 1-(3-bromo-4-(2-fluoroethyl)benzyl)guanidine]	–	–	–	–	17.4	0.60	1.30	0.21	1.61	0.27	0.94	–	–	–
^3H-noradrenaline [^3H-NA, reference compound]	–	–	–	–	–	–	–	–	–	–	–	–	–	97±2
N=C(N)NCc1ccc(CF)c(Br)c1 [Example 3, 1-(3-bromo-4-(fluoromethyl)benzyl)guanidine]	0.01	0.29	0.02	0.39	7.35	2.36	32.76	0.35 ± 0.15	0.71 ± 0.24	0.15 ± 0.03	1.12 ± 0.29	–	–	–
N=C(N)NCc1cccc([123I])c1 [^123I-MIBG, ^123I-meta-iodobenzylguanidine, reference compound]	–	–	–	–	–	–	–	–	–	–	–	–	–	94±2
N=C(N)NCc1ccc2cc(OCCCF)ccc2c1 [Example 12, 1-((6-(3-fluoropropoxy)naphthalen-2-yl)methyl)guanidine]	0.04 ± 0.02	0.29 ± 0.09	0.02 ± 0.01	0.28 ± 0.17	0.14	0.50	5.30	0.37 ± 0.05	1.93 ± 0.11	0.18 ± 0.01	2.09 ± 0.08	–	–	–
N=C(N)NCc1ccc(COCCF)c(Br)c1 [Example 4, 1-(3-bromo-4-((2-fluoroethoxy)methyl)benzyl)guanidine]	0.014	0.025	0.012	0.031	5.41	0.50	1.00	0.13 ± 0.02	1.04 ± 0.95	0.37 ± 0.24	0.34 ± 0.18	–	–	–
N=C(N)NCCc1ccc(CCCF)cc1 [Example 33, 1-(4-(3-fluoropropyl)phenethyl)guanidine]	–	–	–	–	3.95	1.50	2.30	0.10 ± 0.01	1.94 ± 0.16	0.21 ± 0.04	0.66 ± 0.11	–	–	–
